According to the supplement of paper PMC5908809:

Assays:
[1] = tested on: normal NK cells expanded with K562-aAPC; assay: drug sensitivity score (DSS) (DSS units); higher = more sensitive; extreme values may be limits of the assay; details: 72 h; IL-2 2.5 ng/mL
Method: (§1)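 Drug sensitivity and resistance testing on K562-aAPC-expanded normal NK cells: 5 concentrations (10-fold steps over a 10,000-fold range), 72 h at 37 °C, viability by CellTiter-Glo normalised to DMSO and benzethonium chloride controls; DSS from the fitted curve.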

NK-92 (IL-2 2.5 ng/mL) [2] = assay: as above; details: 72 h
NK-YS (IL-2 2.5 ng/mL) [3] = assay: as above; details: 72 h
IMC-1 (IL-2 20 ng/mL) [4] = assay: as above; details: 72 h
DERL-7 (IL-2 2.5 ng/mL) [5] = assay: as above; details: 72 h
YT (IL-2 2.5 ng/mL) [6] = assay: as above; details: 72 h
SNK-6 (IL-2 2.5 ng/mL) [7] = assay: as above; details: 72 h
[8] = tested on: normal primary NK cells, pool 1 (3 donors), resting (IL-2 0 ng/mL); assay: as above; details: 72 h
[9] = tested on: normal primary NK cells, pool 3 (3 donors) (IL-2 2.5 ng/mL); assay: as above; details: 72 h
[10] = tested on: normal primary NK cells, pool 2 (3 donors) (IL-2 2.5 ng/mL); assay: as above; details: 72 h
KHYG-1 (IL-2 2.5 ng/mL) [11] = assay: as above; details: 72 h
KAI3 (IL-2 2.5 ng/mL) [12] = assay: as above; details: 72 h
[13] = tested on: normal primary NK cells, pool 1 (3 donors) (IL-2 2.5 ng/mL); assay: as above; details: 72 h
NKL (IL-2 2.5 ng/mL) [14] = assay: as above; details: 72 h
[15] = tested on: normal NK cells expanded with K562-aAPC; assay: percent inhibition of viability; higher = more inhibition; details: 72 h, IL-2 2.5 ng/mL
Method: as §1

NK-92 (IL-2 2.5 ng/mL) [16] = assay: as above; details: 72 h
NK-YS (IL-2 2.5 ng/mL) [17] = assay: as above; details: 72 h
IMC-1 (IL-2 20 ng/mL) [18] = assay: as above; details: 72 h
DERL-7 (IL-2 2.5 ng/mL) [19] = assay: as above; details: 72 h
YT (IL-2 2.5 ng/mL) [20] = assay: as above; details: 72 h
SNK-6 (IL-2 2.5 ng/mL) [21] = assay: as above; details: 72 h
[22] = tested on: normal primary NK cells, pool 1 (3 donors), resting (IL-2 0 ng/mL); assay: as above; details: 72 h
[23] = tested on: normal primary NK cells, pool 3 (3 donors) (IL-2 2.5 ng/mL); assay: as above; details: 72 h
[24] = tested on: normal primary NK cells, pool 2 (3 donors) (IL-2 2.5 ng/mL); assay: as above; details: 72 h
KHYG-1 (IL-2 2.5 ng/mL) [25] = assay: as above; details: 72 h
KAI3 (IL-2 2.5 ng/mL) [26] = assay: as above; details: 72 h
[27] = tested on: normal primary NK cells, pool 1 (3 donors) (IL-2 2.5 ng/mL); assay: as above; details: 72 h
NKL (IL-2 2.5 ng/mL) [28] = assay: as above; details: 72 h

CCN(CC)CCNC(=O)c1c(C)[nH]c(/C=C2\C(=O)Nc3ccc(F)cc32)c1C [Sunitinib] (max concentration tested 1000 nM)
Details	drug sensitivity score
DERL-7 (IL-2 2.5 ng/mL) [5]	0
IMC-1 (IL-2 20 ng/mL) [4]	0
KAI3 (IL-2 2.5 ng/mL) [12]	0.06
KHYG-1 (IL-2 2.5 ng/mL) [11]	0
NK-92 (IL-2 2.5 ng/mL) [2]	0
NK-YS (IL-2 2.5 ng/mL) [3]	0.4
NKL (IL-2 2.5 ng/mL) [14]	0
SNK-6 (IL-2 2.5 ng/mL) [7]	0
YT (IL-2 2.5 ng/mL) [6]	0
[1]	0
[8]	0.08
[9]	0
[10]	0
[13]	0.13

percent inhibition of viability [%]
Details	0.1 nM	1 nM	10 nM	100 nM	1000 nM
DERL-7 (IL-2 2.5 ng/mL) [19]	-3.26	-7.9	-4.27	2.22	8.72
IMC-1 (IL-2 20 ng/mL) [18]	-2.84	-1.04	-2.36	-9.74	-11.7
KAI3 (IL-2 2.5 ng/mL) [26]	-6.44	-3.5	-1.64	-2.65	13.1
KHYG-1 (IL-2 2.5 ng/mL) [25]	-2.13	-0.89	-1.78	-2.5	-1.47
NK-92 (IL-2 2.5 ng/mL) [16]	-1.8	-5.15	-7.66	-13.8	-16.3
NK-YS (IL-2 2.5 ng/mL) [17]	-7.84	-1.57	-0.53	-5.09	20
NKL (IL-2 2.5 ng/mL) [28]	-10.3	-18.8	-13.7	-21.1	-19
SNK-6 (IL-2 2.5 ng/mL) [21]	5.7	4.75	3.71	-18.1	-44.5
YT (IL-2 2.5 ng/mL) [20]	-1.95	0.38	0.07	-2.92	-1.42
[15]	-1.15	-8.6	-7.99	-3.78	8.28
[22]	-1.26	-12.4	6.63	10.2	8.42
[23]	-5.22	-2.41	-6.25	-3.39	0.3
[24]	-6.76	-0.63	-6.25	-4.61	11.7
[27]	-9.12	-5.49	0.84	2.57	11.7
